# Laboratory results reported in PMC4303209, “A novel phosphatidylinositol 3-kinase (PI3K) inhibitor directs a potent FOXO-dependent, p53-independent cell cycle arrest phenotype characterized by the differential induction of a subset of FOXO-regulated genes” (Breast Cancer Research : BCR, 2014).
# Tested on: MCF-7 breast cancer cells
# Test: Microarray gene expression analysis (Agilent whole human genome 4 x 44K; compound vs DMSO, LIMMA log2 fold change)
# Type: cell-based
structure (smiles),measurement,setting,value
Oc1cccc(-c2nc(N3CCOCC3)c3oc4ncccc4c3n2)c1 [PI-103],PRNP log2FC,,0.095
same,log2FC,,0.10
same,AARS log2FC,"Apoptosis genes, Gene 16",-0.158
same,ABL1 log2FC,"Apoptosis genes, Gene 25",-0.144
same,ABR log2FC,"Apoptosis genes, Gene 29",-0.279
same,ACTN4 log2FC,"Apoptosis genes, Gene 81",-0.244
same,ACTN1 log2FC,"Apoptosis genes, Gene 87",-0.457
same,ACTN2 log2FC,"Apoptosis genes, Gene 88",0.074
same,ACTN3 log2FC,"Apoptosis genes, Gene 89",-0.703
same,ACVR1 log2FC,"Apoptosis genes, Gene 90",0.552
same,ACVR1B log2FC,"Apoptosis genes, Gene 91",-0.214
same,ADA log2FC,"Apoptosis genes, Gene 100",-0.093
same,ADAM8 log2FC,"Apoptosis genes, Gene 101",-0.513
same,ADAR log2FC,"Apoptosis genes, Gene 103",-0.239
same,ADCYAP1 log2FC,"Apoptosis genes, Gene 116",0.042
same,ADD1 log2FC,"Apoptosis genes, Gene 118",-0.173
same,ADM log2FC,"Apoptosis genes, Gene 133",-0.875
same,ADORA1 log2FC,"Apoptosis genes, Gene 134",-1.870
same,ADORA2A log2FC,"Apoptosis genes, Gene 135",-0.109
same,ADRB1 log2FC,"Apoptosis genes, Gene 153",-0.133
same,AES log2FC,"Apoptosis genes, Gene 166",-0.056
same,AGT log2FC,"Apoptosis genes, Gene 183",-0.084
same,AHR log2FC,"Apoptosis genes, Gene 196",0.783
same,AKT1 log2FC,"Apoptosis genes, Gene 207",-0.579
same,AKT2 log2FC,"Apoptosis genes, Gene 208",-0.406
same,ALDH1A3 log2FC,"Apoptosis genes, Gene 220",-0.150
same,ALDOC log2FC,"Apoptosis genes, Gene 230",0.017
same,ALK log2FC,"Apoptosis genes, Gene 238",0.007
same,ALOX15B log2FC,"Apoptosis genes, Gene 247",-0.00234
same,ANGPT1 log2FC,"Apoptosis genes, Gene 284",-0.412
same,SLC25A4 log2FC,"Apoptosis genes, Gene 291",-0.414
same,SLC25A5 log2FC,"Apoptosis genes, Gene 292",-0.037
same,ANXA1 log2FC,"Apoptosis genes, Gene 301",0.803
same,ANXA4 log2FC,"Apoptosis genes, Gene 307",0.480
same,ANXA5 log2FC,"Apoptosis genes, Gene 308",0.167
same,APAF1 log2FC,"Apoptosis genes, Gene 317",0.575
same,NUDT2 log2FC,"Apoptosis genes, Gene 318",0.219
same,APBB2 log2FC,"Apoptosis genes, Gene 323",-0.180
same,APC log2FC,"Apoptosis genes, Gene 324",0.150
same,BIRC3 log2FC,"Apoptosis genes, Gene 330",-0.884
same,BIRC5 log2FC,"Apoptosis genes, Gene 332",0.037
same,APLP1 log2FC,"Apoptosis genes, Gene 333",-0.057
same,APOE log2FC,"Apoptosis genes, Gene 348",0.390
same,APP log2FC,"Apoptosis genes, Gene 351",0.331
same,FASLG log2FC,"Apoptosis genes, Gene 356",-0.231
same,AQP2 log2FC,"Apoptosis genes, Gene 359",-0.010
same,AR log2FC,"Apoptosis genes, Gene 367",0.287
same,ARAF log2FC,"Apoptosis genes, Gene 369",-0.336
same,ARF6 log2FC,"Apoptosis genes, Gene 382",-0.566
same,RHOB log2FC,"Apoptosis genes, Gene 388",-0.099
same,ARHGAP4 log2FC,"Apoptosis genes, Gene 393",0.173
same,ARHGDIA log2FC,"Apoptosis genes, Gene 396",-0.904
same,ARRB2 log2FC,"Apoptosis genes, Gene 409",0.444
same,ASCL1 log2FC,"Apoptosis genes, Gene 429",-0.053
same,ASNS log2FC,"Apoptosis genes, Gene 440",-0.385
same,ATF4 log2FC,"Apoptosis genes, Gene 468",-0.201
same,ATM log2FC,"Apoptosis genes, Gene 472",0.013
same,ATP2A1 log2FC,"Apoptosis genes, Gene 487",-0.025
same,AVP log2FC,"Apoptosis genes, Gene 551",-0.317
same,AXL log2FC,"Apoptosis genes, Gene 558",0.362
same,AZU1 log2FC,"Apoptosis genes, Gene 566",0.048
same,BAD log2FC,"Apoptosis genes, Gene 572",0.529
same,BAG1 log2FC,"Apoptosis genes, Gene 573",1.113
same,BAK1 log2FC,"Apoptosis genes, Gene 578",-0.383
same,BARD1 log2FC,"Apoptosis genes, Gene 580",0.336
same,BAX log2FC,"Apoptosis genes, Gene 581",-0.146
same,BCL2 log2FC,"Apoptosis genes, Gene 596",-0.342
same,BCL2A1 log2FC,"Apoptosis genes, Gene 597",-0.041
same,BCL2L1 log2FC,"Apoptosis genes, Gene 598",-0.919
same,BCL2L2 log2FC,"Apoptosis genes, Gene 599",0.313
same,BCL3 log2FC,"Apoptosis genes, Gene 602",-1.077
same,BCL6 log2FC,"Apoptosis genes, Gene 604",1.197
same,BDNF log2FC,"Apoptosis genes, Gene 627",-0.180
same,BID log2FC,"Apoptosis genes, Gene 637",-0.261
same,BIK log2FC,"Apoptosis genes, Gene 638",-0.571
same,BLM log2FC,"Apoptosis genes, Gene 641",0.071
same,BMP4 log2FC,"Apoptosis genes, Gene 652",0.224
same,BMP7 log2FC,"Apoptosis genes, Gene 655",-0.324
same,BMPR1B log2FC,"Apoptosis genes, Gene 658",-0.150
same,BMX log2FC,"Apoptosis genes, Gene 660",0.041
same,BNIP1 log2FC,"Apoptosis genes, Gene 662",0.320
same,BNIP2 log2FC,"Apoptosis genes, Gene 663",0.429
same,BNIP3 log2FC,"Apoptosis genes, Gene 664",0.757
same,BNIP3L log2FC,"Apoptosis genes, Gene 665",1.132
same,FOXL2 log2FC,"Apoptosis genes, Gene 668",-0.465
same,BRCA1 log2FC,"Apoptosis genes, Gene 672",0.741
same,BRAF log2FC,"Apoptosis genes, Gene 673",0.018
same,BRCA2 log2FC,"Apoptosis genes, Gene 675",0.100
same,BTC log2FC,"Apoptosis genes, Gene 685",0.236
same,BTG1 log2FC,"Apoptosis genes, Gene 694",1.197
same,BUB1 log2FC,"Apoptosis genes, Gene 699",0.591
same,BUB1B log2FC,"Apoptosis genes, Gene 701",0.146
same,TSPO log2FC,"Apoptosis genes, Gene 706",0.105
same,C5AR1 log2FC,"Apoptosis genes, Gene 728",0.079
same,CACNA1A log2FC,"Apoptosis genes, Gene 773",-0.069
same,CALR log2FC,"Apoptosis genes, Gene 811",-0.161
same,CAMK2B log2FC,"Apoptosis genes, Gene 816",0.010
same,CAST log2FC,"Apoptosis genes, Gene 831",0.459
same,CASP1 log2FC,"Apoptosis genes, Gene 834",0.025
same,CASP2 log2FC,"Apoptosis genes, Gene 835",-0.763
same,CASP3 log2FC,"Apoptosis genes, Gene 836",0.305
same,CASP4 log2FC,"Apoptosis genes, Gene 837",0.021
same,CASP5 log2FC,"Apoptosis genes, Gene 838",-0.191
same,CASP6 log2FC,"Apoptosis genes, Gene 839",0.478
same,CASP7 log2FC,"Apoptosis genes, Gene 840",-0.335
same,CASP8 log2FC,"Apoptosis genes, Gene 841",0.045
same,CASP9 log2FC,"Apoptosis genes, Gene 842",0.133
same,CASR log2FC,"Apoptosis genes, Gene 846",0.046
same,CAT log2FC,"Apoptosis genes, Gene 847",0.456
same,CAV1 log2FC,"Apoptosis genes, Gene 857",0.357
same,RUNX3 log2FC,"Apoptosis genes, Gene 864",-0.359
same,CBL log2FC,"Apoptosis genes, Gene 867",0.455
same,CBS log2FC,"Apoptosis genes, Gene 875",-0.393
same,KRIT1 log2FC,"Apoptosis genes, Gene 889",0.580
same,CCNG1 log2FC,"Apoptosis genes, Gene 900",0.460
same,CD2 log2FC,"Apoptosis genes, Gene 914",-0.198
same,CD3E log2FC,"Apoptosis genes, Gene 916",-0.245
same,CD3G log2FC,"Apoptosis genes, Gene 917",-0.217
same,CD5 log2FC,"Apoptosis genes, Gene 921",0.023
same,CD5L log2FC,"Apoptosis genes, Gene 922",-0.081
same,CD14 log2FC,"Apoptosis genes, Gene 929",-0.379
same,CD28 log2FC,"Apoptosis genes, Gene 940",0.036
same,CD40 log2FC,"Apoptosis genes, Gene 958",-0.612
same,CD44 log2FC,"Apoptosis genes, Gene 960",-0.262
same,CD59 log2FC,"Apoptosis genes, Gene 966",-0.006
same,CD74 log2FC,"Apoptosis genes, Gene 972",0.013
same,CDC34 log2FC,"Apoptosis genes, Gene 997",0.509
same,CDC42 log2FC,"Apoptosis genes, Gene 998",0.080
same,CDK4 log2FC,"Apoptosis genes, Gene 1019",0.170
same,CDKN1A log2FC,"Apoptosis genes, Gene 1026",-1.229
same,CDKN1B log2FC,"Apoptosis genes, Gene 1027",1.116
same,CDKN2A log2FC,"Apoptosis genes, Gene 1029",0.303
same,CDKN2D log2FC,"Apoptosis genes, Gene 1032",0.903
same,CEBPB log2FC,"Apoptosis genes, Gene 1051",-0.197
same,CFL1 log2FC,"Apoptosis genes, Gene 1072",-0.246
same,CTSC log2FC,"Apoptosis genes, Gene 1075",-0.333
same,CGB log2FC,"Apoptosis genes, Gene 1082",-0.180
same,CLU log2FC,"Apoptosis genes, Gene 1191",0.052
same,CLN3 log2FC,"Apoptosis genes, Gene 1201",-0.046
same,CCR7 log2FC,"Apoptosis genes, Gene 1236",0.113
same,PLK3 log2FC,"Apoptosis genes, Gene 1263",-1.591
same,CNR1 log2FC,"Apoptosis genes, Gene 1268",0.471
same,ATF2 log2FC,"Apoptosis genes, Gene 1386",0.878
same,CRH log2FC,"Apoptosis genes, Gene 1392",0.059
same,CRIP1 log2FC,"Apoptosis genes, Gene 1396",0.723
same,CRYAA log2FC,"Apoptosis genes, Gene 1409",-0.050
same,CRYAB log2FC,"Apoptosis genes, Gene 1410",-0.029
same,MAPK14 log2FC,"Apoptosis genes, Gene 1432",-0.303
same,CSE1L log2FC,"Apoptosis genes, Gene 1434",0.551
same,CSF2 log2FC,"Apoptosis genes, Gene 1437",-0.616
same,CSNK2A1 log2FC,"Apoptosis genes, Gene 1457",-0.647
same,CSNK2A2 log2FC,"Apoptosis genes, Gene 1459",0.329
same,CSTB log2FC,"Apoptosis genes, Gene 1476",0.261
same,NKX2-5 log2FC,"Apoptosis genes, Gene 1482",-0.572
same,CTGF log2FC,"Apoptosis genes, Gene 1490",-0.354
same,CTH log2FC,"Apoptosis genes, Gene 1491",0.722
